Laboratory results reported in article PMC9409043, “Serotonin 5-HT6 Receptor Ligands and Butyrylcholinesterase Inhibitors Displaying Antioxidant Activity—Design, Synthesis and Biological Evaluation of Multifunctional Agents against Alzheimer’s Disease” (International Journal of Molecular Sciences, 2022).

Columns and labels:
[1] = Metal-chelating properties, spectrophotometric; details: 50 µM ligand and Fe^2+, 250–400 nm
Text: Metal-chelating properties. The homeostasis of metal ions in the brain is one of the important factors that determine its proper functioning. Disturbed levels of metal ions can lead to overproduction and aggregation of amyloid beta tau proteins and an increase in oxygen radicals production, leading to a degeneration of neurons observed in AD [55]. Additionally, it was observed that iron accumulation in microglia triggers a cascade of events leading to the production of a more sustained inflammatory response with increased reactive oxygen species (ROS) production and increased glycolysis. Adjusting the balance of metal ions by supplementing or chelating may be beneficial in alleviating AD pathology. Thus, we tested the metal-chelating properties of compounds 12–19 against 10 metal ions, recognised as potentially involved in AD. The formation of ligand–ion (Al^3+, Ca^2+, Co^2+, Cu^2+, Fe^2+, Fe^3+, Mg^2+, Ni^2+, Pb^2+ or Zn^2+) complexes was measured spectrophotometrically (250–400 nm with 4 nm interval) at 50 µM concentrations of both, according to the protocol reported previously. Metal-chelating ability was calculated as a shift of absorbance between the absorbance of the ligand–ion mixture and the sum of the absorbance of the ligand and ion separately. […]

[2] = Metabolic stability in human liver microsomes; assay type: in vitro ADME
Protocol: Metabolic stability. […] For detailed results, including UPLC chromatograms and MS spectra, see the Supporting information (Figures S1–S16).
The metabolic stability was evaluated by incubation of compounds with human liver microsomes (Sigma-Aldrich, St. Louis, MO, USA) in 10 mM Tris–HCl buffer (pH 7.4) at 37 °C for 120 min in the presence of NADPH Regeneration System (Promega, Madison, WI, USA). The percentage of the remaining substrate and the most probable metabolic pathways were estimated by UPLC-MS analyses of the reaction mixtures.

[3] = Metabolic stability in mouse liver microsomes; assay type: in vitro ADME; details: 2 h, pH 7.4
CYP2D6 = target: T1, CYP2D6 (Homo sapiens, UniProt P10635); experiment: CYP P450-Glo luminescence assay, CYP2D6; assay type: in vitro ADME; details: human, CYP2D6 enzyme in the luminescent P450-Glo assay (Promega); 0.1 µM
T1 construct: purchased Promega, Madison, WI, USA
T1 sequence (P10635 whole entry): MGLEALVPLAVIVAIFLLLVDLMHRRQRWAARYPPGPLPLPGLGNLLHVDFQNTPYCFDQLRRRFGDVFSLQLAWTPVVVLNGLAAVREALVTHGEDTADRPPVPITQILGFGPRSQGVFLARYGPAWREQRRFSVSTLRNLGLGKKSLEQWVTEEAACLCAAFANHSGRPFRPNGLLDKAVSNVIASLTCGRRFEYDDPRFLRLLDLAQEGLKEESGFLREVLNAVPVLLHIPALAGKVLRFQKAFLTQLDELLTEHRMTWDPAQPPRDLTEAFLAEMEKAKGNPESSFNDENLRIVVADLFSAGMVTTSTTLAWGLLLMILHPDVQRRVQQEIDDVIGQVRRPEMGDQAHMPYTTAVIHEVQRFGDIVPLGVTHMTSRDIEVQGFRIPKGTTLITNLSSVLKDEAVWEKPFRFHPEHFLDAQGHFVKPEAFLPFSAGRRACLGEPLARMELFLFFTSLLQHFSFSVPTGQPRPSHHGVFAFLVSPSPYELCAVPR
Text: Influence on CYP3A4 and CYP2D6 activity. Possible drug–drug interactions (DDIs) are an important issue for elderly patients, who are usually on multiple medications. They may result, among other things, from the interactions (inhibition or activation) of the cytochrome P450 isoenzymes, especially CYP3A4 and CYP2D6, which play the most significant role in drugs’ biotransformation. Therefore, to predict the potential influence of the studied compounds (14, 16 and 19) on the metabolism of other drugs, we used the CYP450 inhibition luminescence assay (Promega). […]. […] […]. […] […].
The influence on CYP 3A4 and 2D6 activity was estimated by respective luminescent CYP P450-Glo™ assay (Promega®, Madison, WI, USA). The compounds were tested in the concentration range of 0.1–25 µM. The results were compared to the respective reference CYP inhibitors: ketoconazole and quinidine.

[4] = system: HepG2 (human hepatocellular carcinoma) cells; experiment: Hepatotoxicity, MTS cell viability test; assay type: cell-based; details: 72 h
Protocol: Hepatotoxicity. To further investigate the safety of the compounds, we determined their hepatotoxicity. We used the MTS test that determines cell viability to assess the effect of compounds 14, 16 and 19 on HepG2 (human hepatocellular carcinoma) cells. The compounds were tested at 1, 10, 50 and 100 μM, and cytostatic drug doxorubicin (DX) at 1 μM was used as a reference compound. […]. The HepG2 (ATCC® HB-8065™) cell line was cultivated according to the procedure provided by ATCC. The tested compounds were incubated with cells for 72 h in the following concentrations: 1, 10, 50 and 100 μM. To evaluate the cells’ viability, CellTiter 96® AQueous Non-Radioactive Cell Proliferation Assay (MTS, Promega®, Madison, WI, USA) was performed. The antiproliferative drug doxorubicin was used as a positive control at the concentration of 1 µM. For determination of the IC50 value for compound 14, additional study was performed. The tested compound was incubated with the HepG2 cells for 72 h in the following nine concentrations: 0.001, 0.01, 0.1, 1, 5, 10, 25, 50 and 100 μM. The cells’ viability was estimated by MTS test. IC50 was calculated by Graph Pad Prism 8.0.1 software.

SMILES	Fe^2+ chelating properties (shift of absorbance) [1]	main metabolic pathway [2]	HLMs % Left ([2]; human, 2 h, pH 7.4)	MLMs % Left [3]	inhibition at 0.1 µM (CYP2D6)	IC50 ([4]; Homo sapiens, HepG2, MTS test)	fold HepG2 IC50 over Ki for 5-HT6R and IC50 for hBuChE (safety margin) ([4]; human)
O=S(=O)(c1ccccc1)N1CCc2c(OCCNCC3CCN(Cc4ccccc4)CC3)cccc21 [Compound 15, N-((1-Benzylpiperidin-4-yl)methyl)-2-((1-(phenylsulfonyl)indolin-4-yl)oxy)ethan-1-amine]	Fe^2+ ions chelators						
O=S(=O)(c1ccccc1)n1ccc2c(OCCNCCCC3CCN(Cc4ccccc4)CC3)cccc21 [Compound 14, 3-(1-Benzylpiperidin-4-yl)-N-(2-((1-(phenylsulfonyl)-1H-indol-4-yl)oxy)ethyl)propan-1-amine]		oxidative deamination	84.69%	75.54%	~20%	2160 nM	at least 98 fold
O=c1[nH]c2c(OCCNCCC3CCN(Cc4ccccc4)CC3)cccc2n1Cc1ccccc1 [Compound 18, 1-Benzyl-4-(2-((2-(1-benzylpiperidin-4-yl)ethyl)amino)ethoxy)-1,3-dihydro-2H-benzo[d]imidazol-2-one]	Fe^2+ ions chelators						
